Test results from patent publication US20090186047A1, “HCV Vaccinations” (INTERCELL AG, priority 2006, published 2009).

Test system: HCV peptide-specific T cells (MHC class I-restricted CD8+ / MHC class II-restricted CD4+)
Assay: IFN-γ ELIspot assay of spleen cells after vaccination of mice
Type: in vivo, HLA-A*0201 transgenic mice (HHD.2)
Description: Vaccine: clinical batch PD03127 (lot K) Injection volume of 100 μl per mouse contains:
As adjuvant: Poly-L-Arginine with an average degree of polymerisation of 40 to 50 arginine residues (determined by multiple angle laser light scattering (MALLS)); lot 113K7277; Sigma Aldrich Inc.; 400 μg • Additional adjuvant: Aldara™ containing 5% Imiquimod, an immunostimulatory agent acting via TLR7; 3M Health Care Ltd.; dose: approx 20 mg/mouse • Formulation buffer: 5 mM phosphate/270 mM sorbitol Experimental set-up 10 mice per group • 1. subcutaneous injection into the flank • 2. intradermal injection into the back • 3. intradermal injection into the back followed by immediate application of Aldara™ cream at injection area
On days 0, 14 and 28 mice were injected with a total amount of 100 μl/vaccine/mouse containing the above listed compounds at different sites as indicated. Spleens were harvested for each experimental group on day 35 and enriched for CD4^+ T cells by magnetic separation (MACS). CD4^+ T cell-depleted spleen cells were used to determine the CD8^+ T cell response. MHC class II restricted (CD4^+ T cells) as well as MHC class I restricted T cell responses (CD8^+ T cells) against each single HCV-derived peptide were determined using an IFN-7 ELIspot assay. In general, restimulation with an irrelevant peptide induced no IFN-7 production.
Vaccine: Injection volume of 100 μl per mouse contains: As antigens: Ipep 83 200 μg, Ipep 84 200 μg, Ipep 87 200 μg, Ipep 89 200 μg, Ipep 1426 200 μg As adjuvant: Poly-L-Arginine with an average degree of polymerization of 40 to 50 arginine residues (determined by MALLS); lot 113K7277; Sigma Aldrich Inc.; 400 μg • Additional adjuvant: Aldara™ containing 5% Imiquimod, an immunostimulatory agent acting via TLR7; 3M Health Care Ltd.; dose: approx 20 mg/mouse • Formulation buffer: 5 mM phosphate/270 mM sorbitol Experimental set-up 30 mice per group (10 per time point of analysis) • 1. intradermal injection into the back • 2. intradermal injection into the back followed by immediate application of Aldara™ cream at injection area […]

[1] = Example 1: subcutaneous injection into the flank, days 0, 14 and 28, spleens day 35

Sequence: GYKVLVLNPSVAAT [Ipep 84]
- MHC class I-restricted CD8+ T cell response (IFN-γ ELIspot) [1]: could be detected
- MHC class II-restricted CD4+ T cell response (IFN-γ ELIspot) [1]: could be detected
- IFN-γ production by MHC class I-restricted CD8+ T cells (Example 2: two intradermal injections, day 21): induced in comparable strength
